Results taken from US8466162B2, “5-alkynyl-pyridines” (Boehringer Ingelheim International GmbH, priority 2011, dated 2013).

Tests used:
PI3Kalpha = molecular target: T1, PI3Kalpha (Homo sapiens, UniProt P42336); assay: Inhibition of PI3Kalpha-induced PIP-2 phosphorylation (filter-binding assay, 33P-ATP); format: biochemical; settings: PI3 Kinase alpha (p85alpha/His-p110alpha), 1 μM ATP; read-out: IC50 PI3Kα
T1 construct: His (N); made in house; host or cells: SF9 insect cells (baculovirus co-infection)

H460 cells = assay: alamarBlue H460 cell assay (antiproliferative/cytotoxicity); format: cell-based; settings: NCI-H460; H460 human lung carcinoma cells
Summary of the method: (§1)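 Read-out: alamarBlue reduction by metabolically active cells, fluorescence ex 530-560 nm/em 590 nm, measured 8 h after dye addition at 37° C. Cells had been exposed to compound for 5-6 days over a 10-point 1:3 series starting at 10 μM final. EC50 derived after medium-blank subtraction.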

MB453 cells = assay: alamarBlue MB453 cell assay (antiproliferative/cytotoxicity); format: cell-based; settings: Homo sapiens; MDA MB 453 breast cancer cell line
Summary of the method: as §1

U87 cells = assay: alamarBlue U87 cell assay (antiproliferative/cytotoxicity); format: cell-based; settings: U-87MG human glioblastoma cells
Summary of the method: as §1

MCF7 cells = assay: alamarBlue MCF7 cell assay (antiproliferative/cytotoxicity); format: cell-based; settings: MCF7 human breast cancer cell line
Summary of the method: as §1

BT474 cells = assay: alamarBlue BT474 cell assay (antiproliferative/cytotoxicity); format: cell-based; settings: BT-474 human breast cancer cell line, 5-6 days incubation
Summary of the method: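 Cells treated 5–6 days at 37 °C with compound, 10 μM top final concentration, 1:3 steps over 10 dilutions, in duplicate. alamarBlue then added for 8 h; fluorescence read at ex 530–560/em 590 nm, medium blank subtracted, EC50 fitted.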

T1 sequence (P27986 whole entry): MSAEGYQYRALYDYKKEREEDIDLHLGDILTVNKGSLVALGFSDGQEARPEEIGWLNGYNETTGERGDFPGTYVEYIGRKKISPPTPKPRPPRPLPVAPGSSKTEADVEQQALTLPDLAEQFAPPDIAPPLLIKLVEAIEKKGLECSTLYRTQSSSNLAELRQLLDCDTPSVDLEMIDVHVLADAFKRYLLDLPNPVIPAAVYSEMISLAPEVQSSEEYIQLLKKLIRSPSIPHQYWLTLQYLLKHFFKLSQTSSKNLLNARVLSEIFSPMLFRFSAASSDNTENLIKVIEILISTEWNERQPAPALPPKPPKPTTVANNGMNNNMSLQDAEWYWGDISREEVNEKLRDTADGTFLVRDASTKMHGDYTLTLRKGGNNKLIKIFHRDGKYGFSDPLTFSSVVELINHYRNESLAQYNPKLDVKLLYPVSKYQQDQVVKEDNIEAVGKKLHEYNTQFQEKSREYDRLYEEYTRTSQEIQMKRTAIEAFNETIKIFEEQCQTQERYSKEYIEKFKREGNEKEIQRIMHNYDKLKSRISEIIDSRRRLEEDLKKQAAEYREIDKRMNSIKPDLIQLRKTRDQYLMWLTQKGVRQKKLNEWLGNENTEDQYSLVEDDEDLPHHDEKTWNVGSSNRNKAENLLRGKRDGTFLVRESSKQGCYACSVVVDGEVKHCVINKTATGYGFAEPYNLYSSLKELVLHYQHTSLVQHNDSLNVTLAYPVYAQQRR
T1 sequence (P42336 whole entry): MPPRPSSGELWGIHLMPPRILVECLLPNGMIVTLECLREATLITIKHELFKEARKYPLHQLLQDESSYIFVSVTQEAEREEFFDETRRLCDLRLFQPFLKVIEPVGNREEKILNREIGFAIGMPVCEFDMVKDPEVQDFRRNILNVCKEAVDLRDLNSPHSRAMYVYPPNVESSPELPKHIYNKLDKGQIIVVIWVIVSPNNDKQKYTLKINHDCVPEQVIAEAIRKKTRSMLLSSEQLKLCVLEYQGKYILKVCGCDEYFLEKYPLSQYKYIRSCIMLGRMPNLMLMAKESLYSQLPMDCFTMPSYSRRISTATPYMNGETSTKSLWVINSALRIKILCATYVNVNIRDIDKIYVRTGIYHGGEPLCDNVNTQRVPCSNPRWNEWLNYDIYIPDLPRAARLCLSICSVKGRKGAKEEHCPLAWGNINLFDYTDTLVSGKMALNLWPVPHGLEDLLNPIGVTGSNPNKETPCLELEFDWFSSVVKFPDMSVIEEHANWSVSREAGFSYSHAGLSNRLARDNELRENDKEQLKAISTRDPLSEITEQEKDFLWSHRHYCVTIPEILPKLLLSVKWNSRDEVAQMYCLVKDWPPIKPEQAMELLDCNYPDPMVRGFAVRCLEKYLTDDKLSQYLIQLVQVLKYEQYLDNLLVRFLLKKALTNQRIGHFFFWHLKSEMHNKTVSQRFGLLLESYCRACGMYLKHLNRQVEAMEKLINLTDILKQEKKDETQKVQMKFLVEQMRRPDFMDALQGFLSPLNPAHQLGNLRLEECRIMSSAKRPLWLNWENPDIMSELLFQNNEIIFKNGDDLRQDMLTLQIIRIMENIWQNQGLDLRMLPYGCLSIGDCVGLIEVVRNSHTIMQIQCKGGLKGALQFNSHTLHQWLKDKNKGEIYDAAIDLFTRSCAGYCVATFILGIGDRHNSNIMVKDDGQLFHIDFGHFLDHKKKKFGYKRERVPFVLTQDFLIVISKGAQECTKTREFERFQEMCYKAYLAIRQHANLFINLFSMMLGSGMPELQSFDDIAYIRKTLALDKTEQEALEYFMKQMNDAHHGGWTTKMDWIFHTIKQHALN

| Compound | IC50 (PI3Kalpha) [nM] | EC50 (H460 cells) [nM] | EC50 (MB453 cells) [nM] | EC50 (U87 cells) [nM] | EC50 (MCF7 cells) [nM] | EC50 (BT474 cells) [nM] |
| --- | --- | --- | --- | --- | --- | --- |
| CCc1ncnc(-c2ccccc2)c1C#Cc1cnc(C)c(NS(C)(=O)=O)c1 [Example 52, N-[5-(4-Ethyl-6-phenyl-pyrimidin-5-ylethynyl)-2-methyl-pyridin-3-yl]-methanesulfonamide] | 3 | 1210 | 452 | 1020 | 154 | 520 |
| CCc1ncnc(-c2cccc(C#N)c2)c1C#Cc1cnc(C)c(NS(C)(=O)=O)c1 [Example 55, N-{5-[4-(3-Cyano-phenyl)-6-ethyl-pyrimidin-5-ylethynyl]-2-methyl-pyridin-3-yl}-methanesulfonamide] | 3 | 945 | 317 | 609 | 126 | 302 |
| CCc1ncnc(-c2ccccc2F)c1C#Cc1cnc(C)c(NS(C)(=O)=O)c1 [Example 57, N-{5-[4-Ethyl-6-(2-fluoro-phenyl)-pyrimidin-5-ylethynyl]-2-methyl-pyridin-3-yl}-methanesulfonamide] | 8 | 3140 | 1620 | 2660 | 541 | 1080 |
| CCc1ncnc(-c2ccccc2OC)c1C#Cc1cnc(C)c(NS(C)(=O)=O)c1 [Example 62, N-{5-[4-Ethyl-6-(2-methoxy-phenyl)-pyrimidin-5-ylethynyl]-2-methyl-pyridin-3-yl}-methanesulfonamide] | 12 | 2760 | 2900 | 25000 | 1420 | ≥ 10000 |
| CCc1ncnc(-c2ccc(F)cc2F)c1C#Cc1cnc(C)c(NS(C)(=O)=O)c1 [Example 63, N-{5-[4-(2,4-Difluoro-phenyl)-6-ethyl-pyrimidin-5-ylethynyl]-2-methyl-pyridin-3-yl}-methanesulfonamide] | 4 | 1110 | 1180 | 1880 | 734 | 1540 |

Compounds with a lower IC50 (PI3Kalpha), results first:

| IC50 (PI3Kalpha) [nM] | Compound | EC50 (H460 cells) [nM] | EC50 (MB453 cells) [nM] | EC50 (U87 cells) [nM] | EC50 (MCF7 cells) [nM] | EC50 (BT474 cells) [nM] |
| --- | --- | --- | --- | --- | --- | --- |
| 0.42 | CCc1ncnc(-c2ccc(CNC(=O)OC(C)(C)C)nc2)c1C#Cc1cnc(C)c(NS(=O)(=O)c2ccc(F)cc2F)c1 [Example 48, (5-{5-[5-(2,4-Difluoro-benzenesulfonylamino)-6-methyl-pyridin-3-ylethynyl]-6-ethyl-pyrimidin-4-yl}-pyridin-2-ylmethyl)-carbamic acid tert-butyl ester] | 63 | 89 | 89 | 3 | 26 |
| 2 | CCc1ncnc(-c2ccc(CNC(=O)OC(C)(C)C)nc2)c1C#Cc1cnc(C)c(NS(=O)(=O)c2ccccc2C(F)(F)F)c1 [Example 49, (5-{6-Ethyl-5-[6-methyl-5-(2-trifluoromethyl-benzenesulfonylamino)-pyridin-3-ylethynyl]-pyrimidin-4-yl}-pyridin-2-ylmethyl)-carbamic acid tert-butyl ester] | 120 | 169 | 241 | 57 | 207 |
| 0.43 | CCc1ncnc(-c2ccc(CNC(=O)OC(C)(C)C)nc2)c1C#Cc1cnc(C)c(NS(=O)(=O)c2ccccc2)c1 [Example 50, {5-[5-(5-Benzene-sulfonylamino-6-methyl-pyridin-3-ylethynyl)-6-ethyl-pyrimidin-4-yl]-pyridin-2-ylmethyl}-carbamic acid tert-butyl ester] | 104 | 115 | 104 | 27 | 102 |
| 1 | CCc1ncnc(-c2cccc(F)c2)c1C#Cc1cnc(C)c(NS(C)(=O)=O)c1 [Example 61, N-{5-[4-Ethyl-6-(3-fluoro-phenyl)-pyrimidin-5-ylethynyl]-2-methyl-pyridin-3-yl}-methanesulfonamide] | 400 | 420 | 321 | 454 | 693 |
